From ChEMBL document CHEMBL3739345, “Design and synthesis of potent and selective inhibitors of BRD7 and BRD9 bromodomains” (Medchemcomm, 2015)
Calls of active or inactive are those of the source. No cut-off for these calls is given here.

Experiments:
[1] = molecular target: Bromodomain adjacent to zinc finger domain protein 2A (Homo sapiens) (UniProt Q9UIF9); assay: Binding affinity to human BAZ2A at 10 uM by differential scanning fluorimetry
[2] = molecular target: T1, Bromodomain-containing protein 9 (Homo sapiens) (UniProt Q9H8M2); assay: Inhibition of human BRD9 expressed in U2OS cells assessed as inhibition of BRD9-chromatin association after 24 hrs by FRAP assay in presence of pan-HDAC inhibitor SAHA; format: cell-based
T1 sequence (whole entry): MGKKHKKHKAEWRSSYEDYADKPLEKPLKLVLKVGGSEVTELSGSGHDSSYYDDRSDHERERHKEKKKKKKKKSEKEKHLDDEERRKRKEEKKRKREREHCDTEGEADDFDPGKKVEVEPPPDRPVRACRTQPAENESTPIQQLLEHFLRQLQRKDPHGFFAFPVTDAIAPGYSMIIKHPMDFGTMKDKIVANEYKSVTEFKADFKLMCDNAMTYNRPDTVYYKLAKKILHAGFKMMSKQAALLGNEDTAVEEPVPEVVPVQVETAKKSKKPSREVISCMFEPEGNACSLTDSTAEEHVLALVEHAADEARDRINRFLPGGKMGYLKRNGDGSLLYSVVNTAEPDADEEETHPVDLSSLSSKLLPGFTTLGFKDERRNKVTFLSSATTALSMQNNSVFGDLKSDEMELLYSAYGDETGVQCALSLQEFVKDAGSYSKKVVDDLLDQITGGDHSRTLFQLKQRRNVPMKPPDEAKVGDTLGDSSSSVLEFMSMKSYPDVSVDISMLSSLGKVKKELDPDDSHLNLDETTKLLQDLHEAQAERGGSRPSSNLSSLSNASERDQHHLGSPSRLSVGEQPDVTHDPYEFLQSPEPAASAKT

[3] = molecular target: T2, Bromodomain-containing protein 9 (Homo sapiens, UniProt Q9H8M2); assay: Binding affinity to human BRD9 by isothermal titration calorimetry
T2 sequence (Q9H8M2 whole entry): T1 sequence (whole entry)

[4] = molecular target: Bromodomain-containing protein 3 (Homo sapiens) (UniProt Q15059); assay: Binding affinity to human BRD3 at 10 uM by differential scanning fluorimetry
[5] = molecular target: Bromodomain-containing protein 2 (Homo sapiens) (UniProt P25440); assay: Binding affinity to human BRD2 at 10 uM by differential scanning fluorimetry
[6] = molecular target: T3, Bromodomain-containing protein 4 (Homo sapiens, UniProt O60885); assay: Binding affinity to human BRD4 at 15 uM by isothermal titration calorimetry
[7] = molecular target: CREB-binding protein (Homo sapiens) (UniProt Q92793); assay: Binding affinity to human CBP assessed as change in melting temperature at 10 uM by differential scanning fluorimetry
[8] = molecular target: T4, Bromodomain-containing protein 7 (Homo sapiens) (UniProt Q9NPI1); assay: Binding affinity to human BRD7 assessed as change in melting temperature at 10 uM by differential scanning fluorimetry
T4 sequence (whole entry): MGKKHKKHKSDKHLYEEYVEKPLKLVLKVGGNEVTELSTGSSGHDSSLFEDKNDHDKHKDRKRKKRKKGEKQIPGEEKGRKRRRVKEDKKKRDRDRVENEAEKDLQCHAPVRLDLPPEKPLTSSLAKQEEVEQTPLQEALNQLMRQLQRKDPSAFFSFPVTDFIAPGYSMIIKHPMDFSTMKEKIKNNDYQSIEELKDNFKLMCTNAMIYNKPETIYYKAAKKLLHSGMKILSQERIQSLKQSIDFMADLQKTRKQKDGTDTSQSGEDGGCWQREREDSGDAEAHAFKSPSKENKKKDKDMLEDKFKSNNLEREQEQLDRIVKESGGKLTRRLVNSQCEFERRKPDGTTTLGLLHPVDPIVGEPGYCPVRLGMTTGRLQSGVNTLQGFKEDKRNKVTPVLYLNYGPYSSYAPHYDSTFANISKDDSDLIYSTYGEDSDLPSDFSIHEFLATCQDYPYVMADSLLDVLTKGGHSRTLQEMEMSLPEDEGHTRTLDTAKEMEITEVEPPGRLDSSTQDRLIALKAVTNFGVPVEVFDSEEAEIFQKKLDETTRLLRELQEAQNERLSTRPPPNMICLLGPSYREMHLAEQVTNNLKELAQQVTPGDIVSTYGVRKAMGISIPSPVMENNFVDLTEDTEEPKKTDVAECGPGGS

[9] = molecular target: T5, Bromodomain adjacent to zinc finger domain protein 2B (Homo sapiens, UniProt Q9UIF8); assay: Binding affinity to human BAZ2B at 10 uM by differential scanning fluorimetry
[10] = molecular target: T2, Bromodomain-containing protein 9; assay: Inhibition of human BRD9 by alpha screen assay
[11] = molecular target: T6, Bromodomain-containing protein 7 (Homo sapiens, UniProt Q9NPI1); assay: Binding affinity to human BRD7 by isothermal titration calorimetry
T6 sequence (Q9NPI1 whole entry): T4 sequence (whole entry)

[12] = molecular target: T5, Bromodomain adjacent to zinc finger domain protein 2B; assay: Inhibition of human BAZ2B by alpha screen assay
[13] = molecular target: T3, Bromodomain-containing protein 4; assay: Binding affinity to human BRD4 assessed as change in melting temperature at 10 uM by differential scanning fluorimetry

T5 sequence (Q9UIF8 whole entry, the tested form may be a part): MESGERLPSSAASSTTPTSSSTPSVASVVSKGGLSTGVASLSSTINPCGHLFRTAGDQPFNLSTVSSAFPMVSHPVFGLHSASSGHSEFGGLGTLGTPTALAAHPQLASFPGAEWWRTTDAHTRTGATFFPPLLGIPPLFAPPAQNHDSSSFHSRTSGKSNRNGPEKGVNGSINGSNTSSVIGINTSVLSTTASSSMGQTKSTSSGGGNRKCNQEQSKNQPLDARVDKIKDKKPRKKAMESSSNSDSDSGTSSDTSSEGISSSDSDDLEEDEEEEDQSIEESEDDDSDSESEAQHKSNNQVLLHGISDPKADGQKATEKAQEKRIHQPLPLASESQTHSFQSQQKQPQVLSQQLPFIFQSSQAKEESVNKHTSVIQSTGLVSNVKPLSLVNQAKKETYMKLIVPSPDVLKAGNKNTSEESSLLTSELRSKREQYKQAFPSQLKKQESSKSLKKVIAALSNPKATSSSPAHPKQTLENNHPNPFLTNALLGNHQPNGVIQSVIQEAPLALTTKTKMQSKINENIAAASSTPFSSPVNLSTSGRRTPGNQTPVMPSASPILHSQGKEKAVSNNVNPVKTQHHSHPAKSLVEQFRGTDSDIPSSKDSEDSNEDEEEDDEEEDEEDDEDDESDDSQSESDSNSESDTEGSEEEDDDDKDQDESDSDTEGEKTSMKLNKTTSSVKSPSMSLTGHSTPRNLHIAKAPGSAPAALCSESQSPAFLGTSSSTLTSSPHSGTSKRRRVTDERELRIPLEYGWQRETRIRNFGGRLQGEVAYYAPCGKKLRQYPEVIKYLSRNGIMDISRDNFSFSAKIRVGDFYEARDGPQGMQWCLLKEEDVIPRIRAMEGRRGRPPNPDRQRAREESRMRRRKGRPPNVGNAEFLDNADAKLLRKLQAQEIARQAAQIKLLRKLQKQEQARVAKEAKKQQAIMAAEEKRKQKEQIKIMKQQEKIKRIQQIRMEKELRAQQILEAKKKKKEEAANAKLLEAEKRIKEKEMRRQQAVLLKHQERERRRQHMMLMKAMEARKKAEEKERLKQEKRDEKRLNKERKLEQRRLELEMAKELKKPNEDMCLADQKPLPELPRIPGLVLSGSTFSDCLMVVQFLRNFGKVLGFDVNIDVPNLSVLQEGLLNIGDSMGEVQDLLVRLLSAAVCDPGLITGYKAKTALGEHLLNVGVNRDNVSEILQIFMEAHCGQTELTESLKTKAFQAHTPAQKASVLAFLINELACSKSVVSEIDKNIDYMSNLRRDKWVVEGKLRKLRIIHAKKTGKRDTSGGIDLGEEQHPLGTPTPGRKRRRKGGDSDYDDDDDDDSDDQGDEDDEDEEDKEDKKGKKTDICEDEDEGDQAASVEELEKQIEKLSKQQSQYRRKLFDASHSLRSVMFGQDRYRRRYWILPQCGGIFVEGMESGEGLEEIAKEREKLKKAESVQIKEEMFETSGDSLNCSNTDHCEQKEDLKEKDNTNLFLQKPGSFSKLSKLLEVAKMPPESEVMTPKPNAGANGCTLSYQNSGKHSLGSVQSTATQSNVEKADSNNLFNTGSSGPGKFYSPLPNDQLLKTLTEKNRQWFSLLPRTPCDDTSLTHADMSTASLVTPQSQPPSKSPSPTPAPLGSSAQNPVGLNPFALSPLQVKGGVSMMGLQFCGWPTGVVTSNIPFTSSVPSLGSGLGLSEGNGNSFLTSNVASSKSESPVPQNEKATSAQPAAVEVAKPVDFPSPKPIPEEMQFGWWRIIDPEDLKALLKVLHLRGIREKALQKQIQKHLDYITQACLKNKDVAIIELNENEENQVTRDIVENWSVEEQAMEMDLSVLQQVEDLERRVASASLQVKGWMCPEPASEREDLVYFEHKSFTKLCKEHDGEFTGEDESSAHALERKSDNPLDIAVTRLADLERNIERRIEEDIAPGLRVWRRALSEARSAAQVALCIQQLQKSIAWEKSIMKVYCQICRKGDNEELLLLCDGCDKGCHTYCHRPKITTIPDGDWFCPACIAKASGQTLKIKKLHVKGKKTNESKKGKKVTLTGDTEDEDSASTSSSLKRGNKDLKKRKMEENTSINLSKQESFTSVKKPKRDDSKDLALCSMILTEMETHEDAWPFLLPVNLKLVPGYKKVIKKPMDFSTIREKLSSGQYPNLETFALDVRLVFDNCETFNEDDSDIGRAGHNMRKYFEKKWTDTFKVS
Sequence of Bromodomain-containing protein 2 (Homo sapiens) (P25440 whole entry, looked up): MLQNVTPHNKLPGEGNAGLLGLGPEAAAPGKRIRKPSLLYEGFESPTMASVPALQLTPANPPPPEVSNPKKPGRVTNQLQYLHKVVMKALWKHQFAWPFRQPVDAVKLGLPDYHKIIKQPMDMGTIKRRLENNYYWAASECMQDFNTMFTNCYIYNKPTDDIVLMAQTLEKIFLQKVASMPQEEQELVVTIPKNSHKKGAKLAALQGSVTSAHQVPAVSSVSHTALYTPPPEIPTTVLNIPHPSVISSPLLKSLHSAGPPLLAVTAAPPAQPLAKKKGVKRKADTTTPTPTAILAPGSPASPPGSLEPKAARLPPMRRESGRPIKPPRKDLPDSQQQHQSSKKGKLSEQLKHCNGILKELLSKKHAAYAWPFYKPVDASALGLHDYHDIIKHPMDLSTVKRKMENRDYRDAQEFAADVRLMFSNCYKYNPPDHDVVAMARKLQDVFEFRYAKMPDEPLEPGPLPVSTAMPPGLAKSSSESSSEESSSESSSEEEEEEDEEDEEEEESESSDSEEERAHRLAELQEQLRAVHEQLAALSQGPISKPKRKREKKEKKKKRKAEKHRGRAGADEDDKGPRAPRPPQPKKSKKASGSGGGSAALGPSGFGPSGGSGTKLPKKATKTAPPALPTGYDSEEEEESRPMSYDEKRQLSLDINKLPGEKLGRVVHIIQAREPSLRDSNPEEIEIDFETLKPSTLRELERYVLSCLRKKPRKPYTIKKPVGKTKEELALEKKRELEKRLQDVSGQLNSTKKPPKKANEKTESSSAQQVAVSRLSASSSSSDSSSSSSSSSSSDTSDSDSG
Sequence of Bromodomain adjacent to zinc finger domain protein 2A (Homo sapiens) (Q9UIF9 whole entry, the tested form may be a part): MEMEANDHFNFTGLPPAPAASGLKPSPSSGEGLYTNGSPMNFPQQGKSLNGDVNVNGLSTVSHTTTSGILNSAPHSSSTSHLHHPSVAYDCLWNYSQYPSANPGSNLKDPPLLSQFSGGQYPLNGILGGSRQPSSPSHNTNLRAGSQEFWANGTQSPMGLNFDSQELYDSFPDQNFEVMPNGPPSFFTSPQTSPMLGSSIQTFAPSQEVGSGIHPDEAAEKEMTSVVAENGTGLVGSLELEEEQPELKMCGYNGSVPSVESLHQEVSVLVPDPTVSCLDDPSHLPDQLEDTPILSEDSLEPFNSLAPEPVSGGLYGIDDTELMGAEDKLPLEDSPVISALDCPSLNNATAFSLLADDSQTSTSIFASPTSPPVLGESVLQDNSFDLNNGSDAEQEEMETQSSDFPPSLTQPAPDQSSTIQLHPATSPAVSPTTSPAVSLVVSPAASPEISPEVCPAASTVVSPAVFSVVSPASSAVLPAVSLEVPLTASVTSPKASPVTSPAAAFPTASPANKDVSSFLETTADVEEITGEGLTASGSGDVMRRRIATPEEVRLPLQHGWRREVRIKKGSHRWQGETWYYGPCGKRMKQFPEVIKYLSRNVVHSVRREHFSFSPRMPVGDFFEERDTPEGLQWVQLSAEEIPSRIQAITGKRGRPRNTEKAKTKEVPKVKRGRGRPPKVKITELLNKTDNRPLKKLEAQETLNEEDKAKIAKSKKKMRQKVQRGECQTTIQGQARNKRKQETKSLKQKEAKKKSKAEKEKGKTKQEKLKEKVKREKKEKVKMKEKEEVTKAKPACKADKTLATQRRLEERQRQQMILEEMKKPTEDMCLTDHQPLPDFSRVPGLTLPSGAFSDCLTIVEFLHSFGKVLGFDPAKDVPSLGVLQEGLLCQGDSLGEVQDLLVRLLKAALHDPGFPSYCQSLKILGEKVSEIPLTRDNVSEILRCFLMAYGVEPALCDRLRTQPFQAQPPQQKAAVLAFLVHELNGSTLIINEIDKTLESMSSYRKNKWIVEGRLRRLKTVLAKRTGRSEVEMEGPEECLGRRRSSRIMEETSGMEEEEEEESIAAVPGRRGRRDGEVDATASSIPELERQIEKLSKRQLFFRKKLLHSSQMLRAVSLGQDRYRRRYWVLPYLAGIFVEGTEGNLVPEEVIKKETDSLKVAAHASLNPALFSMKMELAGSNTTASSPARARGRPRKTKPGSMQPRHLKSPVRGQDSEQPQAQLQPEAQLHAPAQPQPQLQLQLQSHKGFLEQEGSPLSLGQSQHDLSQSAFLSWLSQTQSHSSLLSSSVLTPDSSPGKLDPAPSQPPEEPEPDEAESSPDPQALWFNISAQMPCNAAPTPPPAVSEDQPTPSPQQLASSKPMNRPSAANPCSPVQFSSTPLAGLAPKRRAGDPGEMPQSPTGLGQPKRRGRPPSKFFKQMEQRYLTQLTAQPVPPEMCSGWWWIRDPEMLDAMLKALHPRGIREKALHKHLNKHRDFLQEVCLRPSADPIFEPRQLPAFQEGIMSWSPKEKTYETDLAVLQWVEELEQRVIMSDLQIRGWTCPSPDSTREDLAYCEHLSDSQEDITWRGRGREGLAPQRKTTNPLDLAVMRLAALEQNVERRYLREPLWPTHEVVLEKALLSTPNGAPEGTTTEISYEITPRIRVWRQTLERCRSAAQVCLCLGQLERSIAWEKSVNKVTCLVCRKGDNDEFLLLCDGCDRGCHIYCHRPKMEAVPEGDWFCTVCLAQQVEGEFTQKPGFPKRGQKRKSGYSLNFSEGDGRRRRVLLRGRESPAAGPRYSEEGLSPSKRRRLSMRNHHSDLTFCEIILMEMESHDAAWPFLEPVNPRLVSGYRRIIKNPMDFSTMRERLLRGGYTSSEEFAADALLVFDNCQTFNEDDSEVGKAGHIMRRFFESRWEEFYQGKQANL

With `CC(=O)c1cc(-c2cccc3nccn23)c2cc(N3CCOCC3)ccn12` the Activity [1] was “Active”, the inhibition [2] was “Dose-dependent effect” and the Kd [3] was 68 nM. The Activity [4] was “Active”, the Activity [5] was “Active” and the Activity [6] was “inactive”. The ΔTm [7] was 1.8 °C, the ΔTm [8] was 5.6 °C and the Activity [9] was “Active”. It also gave an IC50 [10] of 126 nM, a Kd [11] of 368 nM and an IC50 [12] of over 100000 nM. The ΔTm [13] was 1.3 °C.
